Measured values: the supplement of paper PMC9673313

Compound: Clc1ccc2c(N3CCN(CCCN4CCN(c5ccnc6cc(Cl)ccc56)CC4)CC3)ccnc2c1 [piperaquine]
Description: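 Kenyan Plasmodium falciparum field isolates (2008-2021) were tested in a SYBR Green I growth-inhibition assay, either immediately ex vivo (fresh samples) or in vitro after culture adaptation. Cultures were at 1% parasitemia and 2% hematocrit, incubated with serial drug dilutions for 72 h at 37 °C (5% O2, 5% CO2), then read by fluorescence. IC50 was fitted by non-linear regression of the dose-response curve.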

First: KDH 21/02/0167
Second: KDH 21/05/0230
The IC50 growth inhibition of the first is 5.5-fold lower: 0.0233 µg/mL for the first, 0.127 µg/mL for the second.

KSI 13/3/323 and KSI 10/09/099 are within 1.5-fold of each other in IC50 growth inhibition: 0.0287 µg/mL for the first, 0.0338 µg/mL for the second.

Going from 601-0284 to MGT 18/08/0004, the IC50 growth inhibition falls from 0.0176 µg/mL to 0.00164 µg/mL (11-fold).

KSI 15/06/786 and 601-0023 are within 1.5-fold of each other in IC50 growth inhibition: 0.0146 µg/mL for the first, 0.0124 µg/mL for the second.

Going from KDH 18/07/0010 to KCH 14/10/283, the IC50 growth inhibition falls from 0.0227 µg/mL to 0.00595 µg/mL (3.8-fold).

Going from KOM 21/03/0256 to KCH 15/06/316, the IC50 growth inhibition rises from 0.0026 µg/mL to 0.0313 µg/mL (12-fold).

Compared with MDH 11/12/0052, KDH 13/09/1180 is 1.6-fold higher in IC50 growth inhibition: 0.00417 µg/mL for the first, 0.00678 µg/mL for the second.

First: KOM 16/07/0616
Second: KOM 19/12/151
The IC50 growth inhibition of the first is 1.8-fold higher: 0.0305 µg/mL for the first, 0.0169 µg/mL for the second.

Going from KOM 20/02/0179 to KOM 14/04/215, the IC50 growth inhibition rises from 0.0157 µg/mL to 0.0255 µg/mL (1.6-fold).

Going from KOM 16/07/0611 to KOM 18/07/0005, the IC50 growth inhibition falls from 0.0143 µg/mL to 0.00889 µg/mL (1.6-fold).

Going from 601-0132 to KCH 10/06/120, the IC50 growth inhibition rises from 0.0171 µg/mL to 0.163 µg/mL (9.5-fold).

Compared with 601-262, 601-272 is 5.5-fold lower in IC50 growth inhibition: 0.112 µg/mL for the first, 0.0205 µg/mL for the second.

KOM 21/08/0353 and MGT 19/09/0054 are within 1.5-fold of each other in IC50 growth inhibition: 0.0415 µg/mL for the first, 0.0326 µg/mL for the second.

Going from KCH19/06/0013 to KCH 10/06/0122, the IC50 growth inhibition rises from 0.0146 µg/mL to 0.069 µg/mL (4.7-fold).

KDH 14/05/1379 and KDH 14/05/1396 are within 1.5-fold of each other in IC50 growth inhibition: 0.0283 µg/mL for the first, 0.0267 µg/mL for the second.

Compared with MGT 14/03/0008, KOM 13/07/0006 is 2.5-fold lower in IC50 growth inhibition: 0.0272 µg/mL for the first, 0.0108 µg/mL for the second.

Going from KSI 12/06/270 to KOM 20/01/0174, the IC50 growth inhibition rises from 0.0175 µg/mL to 0.062 µg/mL (3.5-fold).

Compared with KOM 21/08/0340, MDH 10/10/0020 is 2.3-fold lower in IC50 growth inhibition: 0.0382 µg/mL for the first, 0.0168 µg/mL for the second.

Compared with KSI 16/08/916, KOM 21/04/0219 is 1.5-fold higher in IC50 growth inhibition: 0.0148 µg/mL for the first, 0.0227 µg/mL for the second.

Compared with KOM 21/08/0344, KDH 21/05/0220 is 10-fold lower in IC50 growth inhibition: 0.0249 µg/mL for the first, 0.0025 µg/mL for the second.

First: KCH 17/09/372
Second: MGT 14/03/0009
The IC50 growth inhibition of the first is 7.4-fold lower: 0.00845 µg/mL for the first, 0.0624 µg/mL for the second.

First: KDH 11/10/728
Second: KDH 14/03/1351
The IC50 growth inhibition of the first is 9.8-fold higher: 0.105 µg/mL for the first, 0.0107 µg/mL for the second.

Compared with KOM 19/12/0149, KCH 15/09/334 is 12-fold lower in IC50 growth inhibition: 0.0283 µg/mL for the first, 0.00243 µg/mL for the second.

Going from 601-0018 to KSI 16/06/900, the IC50 growth inhibition rises from 0.00948 µg/mL to 0.0333 µg/mL (3.5-fold).

KOM 14/03/189 and KOM 19/12/155 are within 1.5-fold of each other in IC50 growth inhibition: 0.018 µg/mL for the first, 0.0208 µg/mL for the second.

KOM 19/11/0147 and KOM 13/08/0025 are within 1.5-fold of each other in IC50 growth inhibition: 0.0105 µg/mL for the first, 0.0147 µg/mL for the second.

Compared with KDH 15/06/1658, MGT 21/08/0122 is 4.3-fold higher in IC50 growth inhibition: 0.0205 µg/mL for the first, 0.0872 µg/mL for the second.

Compared with KSI 15/04/732, KOM 21/03/0202 is 2-fold lower in IC50 growth inhibition: 0.0061 µg/mL for the first, 0.003 µg/mL for the second.

Going from KSI 16/07/906 to MDH 18/08/004, the IC50 growth inhibition falls from 0.038 µg/mL to 0.000851 µg/mL (45-fold).

Compared with KCH 18/07/0001, KOM 21/05/0265 is 5.9-fold lower in IC50 growth inhibition: 0.0158 µg/mL for the first, 0.0027 µg/mL for the second.

First: KOM 21/03/267
Second: KOM 18/11/0045
The IC50 growth inhibition of the first is 3.4-fold lower: 0.0023 µg/mL for the first, 0.00771 µg/mL for the second.

Compared with KDH 12/10/909, KDH 19/02/0077 is 1.7-fold higher in IC50 growth inhibition: 0.00983 µg/mL for the first, 0.017 µg/mL for the second.

KDH 12/10/918 showed an IC50 growth inhibition of 0.0132 µg/mL.
